Laboratory results reported in BindingDB's records for doi:10.1111/cbdd.12836 (Korea Institute of Science and Technology, 2017).

Key:
[1] = target: Serine/threonine-protein kinase B-raf [V600E] (Homo sapiens, UniProt P15056, V600E); assay: In vitro Enzyme Assay; conditions: pH 7.5; 25 °C
Protocol: (§1) Reaction Biology Corporation Kinase HotSpotSM service: In a final reactionvolume of 25 μL, kinase (5-10 mU) is incubated with 25 mM Tris pH 7.5, 0.02 mM ethylene glycol tetracetic acid (EGTA), 0.66 mg/mL myelin basic protein, […], and [γ33P-ATP] (specific activity approx. 500 c.p.m./pmol,concentration as required). The reaction is initiated by the addition of the Mg-ATP mix. After incubation for 40 min at room temperature, the reaction is stopped by the addition of 5 μL of a 3% phosphoric acid solution. About 10 μL ofthe reaction solution is then spotted onto a P30 filtermat and washed three times for 5 min in 75 mM phosphoric acid and once in methanol prior to drying and scintillation counting.

[2] = target: RAF proto-oncogene serine/threonine-protein kinase (Homo sapiens, UniProt P04049); assay: In vitro Enzyme Assay; conditions: pH 7.5; 25 °C
Chain of RAF proto-oncogene serine/threonine-protein kinase (P04049 whole entry): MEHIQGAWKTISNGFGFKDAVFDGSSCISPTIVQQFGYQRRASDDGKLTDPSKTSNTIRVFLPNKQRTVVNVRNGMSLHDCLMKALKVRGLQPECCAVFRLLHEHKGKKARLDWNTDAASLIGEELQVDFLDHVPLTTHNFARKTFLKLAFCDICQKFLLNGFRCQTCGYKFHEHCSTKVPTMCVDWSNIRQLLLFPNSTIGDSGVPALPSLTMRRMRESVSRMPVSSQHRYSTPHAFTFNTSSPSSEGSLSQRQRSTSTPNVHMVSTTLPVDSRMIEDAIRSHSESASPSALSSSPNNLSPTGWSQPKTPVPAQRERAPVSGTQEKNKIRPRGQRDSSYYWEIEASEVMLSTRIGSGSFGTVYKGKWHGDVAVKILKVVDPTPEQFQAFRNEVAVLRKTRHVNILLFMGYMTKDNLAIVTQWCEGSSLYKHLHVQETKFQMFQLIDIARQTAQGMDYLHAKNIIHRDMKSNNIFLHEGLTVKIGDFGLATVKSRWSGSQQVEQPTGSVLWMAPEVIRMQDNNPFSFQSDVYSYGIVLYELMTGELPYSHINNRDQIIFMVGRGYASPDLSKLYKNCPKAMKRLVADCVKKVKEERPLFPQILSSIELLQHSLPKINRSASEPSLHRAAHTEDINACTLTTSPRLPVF
Protocol: as §1

Chain of Serine/threonine-protein kinase B-raf [V600E] (P15056 2-766 V600E limits assumed): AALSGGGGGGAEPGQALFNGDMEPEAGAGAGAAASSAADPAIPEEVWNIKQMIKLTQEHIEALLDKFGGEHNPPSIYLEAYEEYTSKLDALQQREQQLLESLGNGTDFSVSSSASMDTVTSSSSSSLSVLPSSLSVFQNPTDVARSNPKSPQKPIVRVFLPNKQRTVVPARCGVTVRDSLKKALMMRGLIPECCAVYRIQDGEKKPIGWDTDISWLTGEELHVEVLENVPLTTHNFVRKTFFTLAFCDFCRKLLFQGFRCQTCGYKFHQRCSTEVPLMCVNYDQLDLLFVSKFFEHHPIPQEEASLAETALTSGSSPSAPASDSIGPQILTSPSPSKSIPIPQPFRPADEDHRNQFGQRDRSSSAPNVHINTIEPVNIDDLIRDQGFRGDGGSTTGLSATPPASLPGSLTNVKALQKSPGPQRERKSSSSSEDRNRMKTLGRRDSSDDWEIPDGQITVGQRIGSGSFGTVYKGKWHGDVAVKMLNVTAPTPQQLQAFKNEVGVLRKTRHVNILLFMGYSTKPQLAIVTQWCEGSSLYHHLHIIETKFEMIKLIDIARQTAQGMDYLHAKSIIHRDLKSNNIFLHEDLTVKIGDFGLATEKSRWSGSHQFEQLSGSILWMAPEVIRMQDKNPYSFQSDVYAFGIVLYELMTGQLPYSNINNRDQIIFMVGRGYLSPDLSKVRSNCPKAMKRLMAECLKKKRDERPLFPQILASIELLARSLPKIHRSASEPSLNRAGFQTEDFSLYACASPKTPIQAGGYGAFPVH

Row | IC50 [1] [µM] | IC50 [2] [µM] | SMILES
1 | > 100 | 92.6 | CNC(=O)c1cc(Oc2cccc3nc(Nc4cccc(C(C)(C)C)c4)ccc23)ccn1 [4-((2-((3-(Tert-butyl)phenyl)amino)quinolin-5-yl)oxy)-N-methylpicolinamide (6d)]
2 | > 100 | > 100 | CNC(=O)c1cc(Oc2cccc3nc(Nc4ccc(Cl)c(C(F)(F)F)c4)ccc23)ccn1 [4-((2-((4-Chloro-3-(trifluoromethyl)phenyl)amino)quinolin-5-yl)oxy)-N-methylpicolinamide (6j)]
